Data reported in ChEMBL document CHEMBL1122002, “Crystal structures and pharmacological activity of calcium channel antagonists: 2,6-dimethyl-3,5-dicarbomethoxy-4-(unsubstituted, 2-methyl-, 4-methyl-, 3-nitro-, 4-nitro-, and 2,4-dinitrophenyl)-1,4-dihydropyridine” (J Med Chem, 1982).

Tests used:
[1] = target: Voltage-gated L-type calcium channel (Homo sapiens, UniProt Q13936+Q13698+Q01668+O60840); test: Calcium channel antagonistic activity relative to 2,6-Dimethyl-4-(2-nitro-phenyl)-1,4-dihydro-pyridine-3,5-dicarboxylic acid dimethyl ester(=100); format: functional, Cavia porcellus; settings: guinea pig
Cavia porcellus = organism: Cavia porcellus; test: Inhibition of muscarinic receptor mediated [Ca2+] dependent contraction of guinea pig ileal longitudinal smooth muscle; format: functional

Row | SMILES | Relative activity [1] | ID50 (Cavia porcellus)
1 | CCOC(=O)C1=C(C)NC(C)=C(C(=O)OCC)C1c1ccccc1 | ~ 18 | 30 nM
2 | COC(=O)C1=C(C)NC(C)=C(C(=O)OC)C1c1ccc(N(C)C)cc1 | 0.005 | 50000 nM
3 | COC(=O)C1=C(C)NC(C)=C(C(=O)OC)C1c1ccccc1 | 18 | 28 nM
4 | COC(=O)C1=C(C)N=C(C)/C(=C(\O)OC)C1c1cccc(C)c1 (configuration not stated) | 4.6 | 110 nM
5 | COC(=O)C1=C(C)N=C(C)/C(=C(\O)OC)C1c1c(F)c(F)c(F)c(F)c1F (configuration not stated) | – | 0.9 nM
6 | COC(=O)C1=C(C)N=C(C)/C(=C(\O)OC)C1c1cccc(C#N)c1 (configuration not stated) | 1.7 | 300 nM
7 | COC(=O)C1=C(C)N=C(C)/C(=C(\O)OC)C1c1ccc(C)cc1 (configuration not stated) | < 0.05 | 50000 nM
8 | COC(=O)C1=C(C)N=C(C)/C(=C(\O)OC)C1c1ccc([N+](=O)[O-])cc1[N+](=O)[O-] (configuration not stated) | < 0.05 | >50000 nM
9 | COC(=O)C1=C(C)NC(C)=C(C(=O)OC)C1c1ccccc1[N+](=O)[O-] [NIFEDIPINE] | 100 | 5.1 nM
